Test results reported in paper PMC2941766 (Molecular pharmaceutics, 2010).

Target: T1, UGT2B7 (Homo sapiens, UniProt P16662)
T1 sequence (P16662 24-529): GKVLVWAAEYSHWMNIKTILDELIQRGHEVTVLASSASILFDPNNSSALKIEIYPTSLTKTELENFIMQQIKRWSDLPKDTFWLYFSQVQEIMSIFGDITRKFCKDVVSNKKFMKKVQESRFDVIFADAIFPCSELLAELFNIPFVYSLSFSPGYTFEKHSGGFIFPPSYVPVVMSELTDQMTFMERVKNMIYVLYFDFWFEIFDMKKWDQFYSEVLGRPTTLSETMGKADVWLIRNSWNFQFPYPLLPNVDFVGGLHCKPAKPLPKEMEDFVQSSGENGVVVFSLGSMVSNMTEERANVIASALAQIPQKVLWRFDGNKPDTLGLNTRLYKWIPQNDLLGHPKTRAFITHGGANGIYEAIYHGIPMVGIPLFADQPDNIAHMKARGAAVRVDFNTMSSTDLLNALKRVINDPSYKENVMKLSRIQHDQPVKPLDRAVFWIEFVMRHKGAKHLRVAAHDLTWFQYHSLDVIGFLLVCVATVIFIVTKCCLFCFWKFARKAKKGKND
Assay: Glucuronidation by expressed human UGT2B7
Assay type: in vitro ADME
Conditions: UGT2B7, conclusion from fingerprints

Row | SMILES | substrate of UGT2B7
1 | O=c1c(O)c(-c2ccc(O)cc2)oc2ccccc12 [3,4′-diHF, 3,4′-dihydroxyflavone] | substrates
2 | O=c1c(O)c(-c2ccccc2)oc2cccc(O)c12 [3,5-diHF, 3,5-dihydroxyflavone] | substrates
3 | O=c1c(O)c(-c2ccccc2)oc2cc(O)ccc12 [3,7-diHF, 3,7-dihydroxyflavone] | substrates
